{"source": "patent US20200315231A1", "about": "“CO-C[…]” (NESTES S,A,, priority 2016, published 2020)", "test": "Water uptake behavior study in powder matrices at 33% Relative Humidity", "type": "physicochemical", "conditions": "all samples tested (maltodextrin, skimmed milk powder, full cream milk powder, growing up milk powder), co-crystal 7.6% by weight, 22 days, versus equivalent dry-mix CaCl2.2 H2O+sucrose", "experimental": "The water uptake behavior was studied for the co-crystal of Sucrose.CaCl2.4 H2O in four different powder matrices: Maltodextrin (FIG. 5), skimmed milk powder (FIG. 6), full cream milk powder with 26% fat (FIG. 7), and powdered “growing up milk” (Nestlé BEBA3) (FIG. 8). For each matrix, three different calcium containing material were mixed into the powder to simulate calcium fortification. Powders were stored in a desiccator at 33% Relative Humidity over 22 days. The water uptake was measured every 3-4 days by tracking the weight change. The water uptake is shown in FIGS. 5 to 8): powder matrix alone (♦), powder matrix with CaCl2. 2 H2O (2.1% by weight): 13.59 g of matrix+290 mg of CaCl2.2 H2O (●), powder matrix with co-crystalline Sucrose.CaCl2.4 H2O (7.6% by weight): 13.59 g of matrix+1.04 g of co-crystal (▴), and powder matrix with the equivalent dry-mix: 13.59 g of matrix+290 mg of CaCl2.2 H2O+670 mg of sucrose (▪)."}
{"compound": "O.O.O.O.OC[C@H]1O[C@@](CO)(O[C@H]2O[C@H](CO)[C@@H](O)[C@H](O)[C@H]2O)[C@@H](O)[C@@H]1O.[Ca+2].[Cl-].[Cl-]", "note": "[co-crystal, Sucrose.CaCl2.4 H2O]", "values": [{"measurement": "water uptake (weight change) compared with the dry mix", "value": "lower for the co-crystal than for the dry mix"}]}
